Measurements published in ChEMBL document CHEMBL1122374 (J Med Chem, 1983).

Assays:
Adenosine deaminase [1] = biological target: T1, Adenosine deaminase (Homo sapiens, UniProt P00813); assay: The compound was tested in vitro for inhibition of human erythrocytic adenosine deaminase
T1 sequence (P00813 whole entry): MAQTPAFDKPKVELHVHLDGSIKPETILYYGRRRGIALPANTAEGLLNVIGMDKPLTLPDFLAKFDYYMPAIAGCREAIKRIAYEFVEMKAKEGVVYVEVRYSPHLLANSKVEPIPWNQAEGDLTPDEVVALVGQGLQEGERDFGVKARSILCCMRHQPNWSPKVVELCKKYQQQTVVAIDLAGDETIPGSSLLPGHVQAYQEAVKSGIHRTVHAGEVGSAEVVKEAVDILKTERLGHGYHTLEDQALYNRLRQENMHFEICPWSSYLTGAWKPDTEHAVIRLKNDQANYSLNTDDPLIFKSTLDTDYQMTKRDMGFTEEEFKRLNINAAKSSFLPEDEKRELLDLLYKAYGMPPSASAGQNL

Adenosine deaminase [2] = biological target: T2, Adenosine deaminase (Bos taurus, UniProt P56658); assay: In vitro inhibition of adenosine deaminase in calf intestinal mucosa; type: tissue-based
T2 sequence (P56658 whole entry): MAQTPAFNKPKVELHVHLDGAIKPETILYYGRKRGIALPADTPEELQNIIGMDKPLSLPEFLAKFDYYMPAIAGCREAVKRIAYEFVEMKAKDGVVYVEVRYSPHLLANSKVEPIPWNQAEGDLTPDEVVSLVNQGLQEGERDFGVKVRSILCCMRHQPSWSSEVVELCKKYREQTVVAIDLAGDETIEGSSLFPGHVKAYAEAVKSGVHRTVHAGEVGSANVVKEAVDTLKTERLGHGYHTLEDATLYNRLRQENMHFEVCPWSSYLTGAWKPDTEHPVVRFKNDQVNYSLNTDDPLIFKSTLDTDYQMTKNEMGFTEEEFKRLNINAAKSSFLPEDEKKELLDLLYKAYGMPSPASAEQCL

| Structure (SMILES) | Ki (Adenosine deaminase [1]) | Ki (Adenosine deaminase [2]) |
| --- | --- | --- |
| OC[C@H]1O[C@@H](n2cnc3c2N=CNC[C@H]3O)[C@H](O)[C@@H]1O [COFORMYCIN] | 0.01 nM |  |
| OCCOCn1cnc2c1NC=NCC2O (stereo not drawn) |  | 98 nM |
| CC1=NC[C@@H](O)c2ncn([C@H]3C[C@H](O)[C@@H](CO)O3)c2N1 |  | 16 nM |
